From the NIST ThermoML archive (doi:10.1021/je049576k)
± gives the expanded uncertainty stated by the source.

Details: 101.33 kPa, Liquid

Row | mass density (298.15 K) [kg/m3] | viscosity (298.15 K) [mPa·s] | mass density (313.15 K) [kg/m3] | viscosity (313.15 K) [mPa·s] | Compound
1 | 1058.62 ± 0.58 | 0.5886 ± 0.0084 | 1039.97 ± 0.56 | 0.4985 ± 0.0074 | C1COCO1 [1,3-dioxolane]
2 | 802.2 ± 0.6 | 3.043 ± 0.037 | 789.59 ± 0.61 | 1.791 ± 0.023 | CCC(C)O (configuration not stated) [butan-2-ol]
3 | 655.07 ± 0.75 | 0.2951 ± 0.005 | 641.27 ± 0.77 | 0.2552 ± 0.0045 | CCCCCC [hexane]
